The values that follow come from patent US9486507B2, “Pro-coagulant compounds and methods of use thereof” (priority 2011, dated 2016).

Square brackets hold non-standard residues; d marks the D form. Ends that are not written are not given here.

The subject of test [1] is FVIII deficient human plasma. The test can be described thus: Thrombin generation assay (TGA) in FVIII-deficient plasma. Format: biochemical.
The target of another test is FIXa (Homo sapiens, UniProt P00740). The test can be described thus: FXa generation assay with human FIXa. It counts as biochemical. The arrangement: purchased Haematologic Technologies. As to conditions: FXa generation assay, 10 nM hFIXa, 100 nM hFX; class symbols.
Chain of FIXa (P00740 47-191 limits assumed): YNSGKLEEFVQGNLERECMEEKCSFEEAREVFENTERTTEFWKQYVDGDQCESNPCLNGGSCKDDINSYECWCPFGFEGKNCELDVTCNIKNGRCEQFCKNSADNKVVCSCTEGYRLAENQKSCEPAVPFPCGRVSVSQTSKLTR
Chain of FIXa (P00740 227-461 limits assumed): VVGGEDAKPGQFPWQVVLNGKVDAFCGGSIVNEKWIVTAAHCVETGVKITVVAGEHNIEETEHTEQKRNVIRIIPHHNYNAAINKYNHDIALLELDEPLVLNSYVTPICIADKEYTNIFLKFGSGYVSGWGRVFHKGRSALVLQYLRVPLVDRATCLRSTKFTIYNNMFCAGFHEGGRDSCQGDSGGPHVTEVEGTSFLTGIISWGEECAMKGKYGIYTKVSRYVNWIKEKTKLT
Setting [2] is: Precision Biologics FVIII-deficient plasma (2), first Baseline (2) series, 2.5 μM.
Where [3] appears, read: Precision Biologics FVIII-deficient plasma (2), first Baseline (2) series, 5 μM.
Where [4] appears, read: Precision Biologics FVIII-deficient plasma (2), first Baseline (2) series, 10 μM.
The mark [5] stands for this setting: Precision Biologics FVIII-deficient plasma (2), second Baseline (2) series, 2.5 μM.
The mark [6] stands for this setting: Precision Biologics FVIII-deficient plasma (2), second Baseline (2) series, 5 μM.
Setting [7] is: Precision Biologics FVIII-deficient plasma (2), second Baseline (2) series, 10 μM.
Setting [8] is: Precision Biologics FVIII-deficient plasma (2), second Baseline (2) series, 20 μM.

Text for FIXa: FXa generation was utilized to assess the capability of the compounds of the present disclosure to enhance the catalytic activities of FIXa and/or FVIIa.
To measure the catalytic activity of FIXa, FIXa was mixed with FX and phospholipids in the presence of calcium chloride. Under these conditions FIXa cleaves the zymogen FX into the active form FXa.
The generation of FXa is monitored by the change in absorbance of the reaction at 405 nm due to the presence of a cleavable FXa chromogenic substrate (S-2765; Z-D-Arg-Gly-Arg-pNA; cleavage of p-nitroaniline). […] The kit contains all the FXa generation components, however, FIXa and FX obtained from this kit are from a bovine origin and were replaced with purified human FIXa or human FVIIa and human FX (Haematologic Technologies).
The assay was also modified to enhance the screening throughput. Instead of the sequential addition, all the assay components were mixed and added simultaneously to the purified compound to be assayed. A 125 μl reaction mix of the assay components was prepared in the buffer supplied by the manufacturer (50 mM Tris 7.3, and 1% BSA). […] The reaction mix (125 ul) was then added to 25 ul of compound diluted in water in a Costar-3651 flat bottom 96-well plate. […] The absorbance was monitored over a period of 1 hour at 405 nm using a plate reader (Synergy 2, Biotek).
The 405 nm absorbance data were then analyzed to obtain the slope of the first derivative which reflects the rate of change in absorbance. The first derivative slope data for each compound concentration were plotted against the compound concentration and fitted to a four-parameter equation to obtain the EC50 and Vmax values for each compound tested.

Regarding PRIRSVGPGSRSASGKLTCLASYCWLFWTGIA, the “Thrombin Above Baseline (nM)” value is on record as “++ (11-20 nM (1) or 30-59 nM (2) (++))” in test [1] (setting [2]), “+++ (21-30 nM (1) or 60-90 nM (2) (+++))” in test [1] (setting [3]) and “+++ (21-30 nM (1) or 60-90 nM (2) (+++))” in test [1] (setting [4]). The Vmax result on FIXa was “(++++) ((++++)>3)”.
Consider PRIRTSGPGSRSASGKLTCLASYCWLFWTGIA, for which the “Thrombin Above Baseline (nM)” value in test [1] (setting [2]) is given as “+ (1-10 nM (1) or 1-29 nM (2) (+))”; in test [1] (setting [3]) it was “++ (11-20 nM (1) or 30-59 nM (2) (++))”; in test [1] (setting [4]) it was “++ (11-20 nM (1) or 30-59 nM (2) (++))”. Also, the Vmax entry on FIXa is recorded as “(++++) ((++++)>3)”.
On to PRIRTVGPGSRSASGKSTCLASYCWLFWTGIA, for which the “Thrombin Above Baseline (nM)” value in test [1] (setting [2]) is on record as “+ (1-10 nM (1) or 1-29 nM (2) (+))”; in test [1] (setting [3]) it was “++ (11-20 nM (1) or 30-59 nM (2) (++))”; in test [1] (setting [4]) it was “+++ (21-30 nM (1) or 60-90 nM (2) (+++))”; in test [1] (setting [5]), “+ (1-10 nM (1) or 1-29 nM (2) (+))”; in test [1] (setting [6]), “+++ (21-30 nM (1) or 60-90 nM (2) (+++))”; in test [1] (setting [7]), “++++ (>30 nM (1) or >90 nM (2) (++++))”. Further, the “Thrombin Above Baseline (nM)” value in test [1] (setting [8]) was “++++ (>30 nM (1) or >90 nM (2) (++++))”. In addition, the Vmax entry at FIXa was “(++++) ((++++)>3)”.
For the substance PRIRTVGPSSRSASGKLTCLASYCWLFWTGIA, the “Thrombin Above Baseline (nM)” value is reported as “+ (1-10 nM (1) or 1-29 nM (2) (+))” in test [1] (setting [2]), “++ (11-20 nM (1) or 30-59 nM (2) (++))” in test [1] (setting [3]) and “++ (11-20 nM (1) or 30-59 nM (2) (++))” in test [1] (setting [4]). The Vmax result at FIXa is reported as “(++++) ((++++)>3)”.
For PRIRTVGSGSRSASGKLTCLASYCWLFWTGIA, the “Thrombin Above Baseline (nM)” value in test [1] (setting [2]), in test [1] (setting [3]) and in test [1] (setting [4]) was “+ (1-10 nM (1) or 1-29 nM (2) (+))” each time. Moreover, the Vmax result at FIXa is listed as “(++++) ((++++)>3)”.
Take PRIRTVSPGSRSASGKLTCLASYCWLFWTGIA: the results for the “Thrombin Above Baseline (nM)” value in test [1] (setting [2]), in test [1] (setting [3]) and in test [1] (setting [4]) were “++ (11-20 nM (1) or 30-59 nM (2) (++))”, “+++ (21-30 nM (1) or 60-90 nM (2) (+++))” and “++++ (>30 nM (1) or >90 nM (2) (++++))”, respectively. Also, the Vmax result on FIXa is reported as “(++++) ((++++)>3)”.
For the substance PRIRTVSPGSRSASGKSTCLASYCWLFWTGIA, the “Thrombin Above Baseline (nM)” value in test [1] (setting [5]) is “++ (11-20 nM (1) or 30-59 nM (2) (++))”; in test [1] (setting [6]), “+++ (21-30 nM (1) or 60-90 nM (2) (+++))”; in test [1] (setting [7]), “++++ (>30 nM (1) or >90 nM (2) (++++))”; in test [1] (setting [8]), “++++ (>30 nM (1) or >90 nM (2) (++++))”. The Vmax entry at FIXa is “(++++) ((++++)>3)”.
Turning to PRISTVGPGSRSASGKLTCLASYCWLFWTGIA, the “Thrombin Above Baseline (nM)” value in test [1] (setting [2]), in test [1] (setting [3]) and in test [1] (setting [4]) was “+ (1-10 nM (1) or 1-29 nM (2) (+))” each time. Moreover, the Vmax entry at FIXa is recorded as “(++++) ((++++)>3)”.
Take “PRIrTVGPGSrSASGKLTCLASYCWLFWTGIA (PRI[dR]TVGPGS[dR]SASGKLTCLASYCWLFWTGIA; not fully specified; printed as PRIrTVGPGSrSASGKLTCLASYCWLFWTGIA; cysteine pairing not given here)”: the “Thrombin Above Baseline (nM)” value in test [1] (HRF FVIII-deficient plasma (1), 2.5 μM) is given as “++ (11-20 nM (1) or 30-59 nM (2) (++))”; in test [1] (HRF FVIII-deficient plasma (1), 2.5 μM, listed as PRIRTVGPGSRSASGKLTCLASYCWLFWTGIA), “+ (1-10 nM (1) or 1-29 nM (2) (+))”; in test [1] (HRF FVIII-deficient plasma (1), 5 μM), “+++ (21-30 nM (1) or 60-90 nM (2) (+++))”; in test [1] (HRF FVIII-deficient plasma (1), 5 μM, listed as PRIRTVGPGSRSASGKLTCLASYCWLFWTGIA) it was “++ (11-20 nM (1) or 30-59 nM (2) (++))”; in test [1] (HRF FVIII-deficient plasma (1), 10 μM), “+++ (21-30 nM (1) or 60-90 nM (2) (+++))”; in test [1] (HRF FVIII-deficient plasma (1), 20 μM), “+++ (21-30 nM (1) or 60-90 nM (2) (+++))”. The “Thrombin Above Baseline (nM)” value in test [1] (setting [2]) is reported as “++ (11-20 nM (1) or 30-59 nM (2) (++))”; in test [1] (setting [3]) it was “+++ (21-30 nM (1) or 60-90 nM (2) (+++))”; in test [1] (setting [4]), “+++ (21-30 nM (1) or 60-90 nM (2) (+++))”.
